These results are taken from article PMC9462760, “A potent and selective inhibitor for the modulation of MAGL activity in the neurovasculature” (PLoS ONE, 2022).

Experiment [1] concerns the target T1, Monoacylglycerol lipase (MAGL) (Mus musculus, UniProt O35678).
T1 construct: gene Mgll
T1 sequence (O35678 1-303): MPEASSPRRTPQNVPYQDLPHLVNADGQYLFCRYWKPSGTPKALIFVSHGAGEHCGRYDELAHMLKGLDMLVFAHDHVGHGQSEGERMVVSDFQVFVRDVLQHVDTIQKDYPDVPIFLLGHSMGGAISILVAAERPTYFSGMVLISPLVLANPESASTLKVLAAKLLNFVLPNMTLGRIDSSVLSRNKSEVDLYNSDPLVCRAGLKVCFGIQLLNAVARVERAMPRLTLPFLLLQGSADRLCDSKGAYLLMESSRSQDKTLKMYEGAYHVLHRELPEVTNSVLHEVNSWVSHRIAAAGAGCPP
Nature of the experiment: competitive ABPP in mouse brain lysate at […] ([…] decrease of MAGL signal). It counts as cell-based.

The target in experiment [2] is T2, Monoacylglycerol lipase (MAGL) (Homo sapiens, UniProt Q99685).
T2 construct: gene MGLL
T2 sequence (Q99685 1-303): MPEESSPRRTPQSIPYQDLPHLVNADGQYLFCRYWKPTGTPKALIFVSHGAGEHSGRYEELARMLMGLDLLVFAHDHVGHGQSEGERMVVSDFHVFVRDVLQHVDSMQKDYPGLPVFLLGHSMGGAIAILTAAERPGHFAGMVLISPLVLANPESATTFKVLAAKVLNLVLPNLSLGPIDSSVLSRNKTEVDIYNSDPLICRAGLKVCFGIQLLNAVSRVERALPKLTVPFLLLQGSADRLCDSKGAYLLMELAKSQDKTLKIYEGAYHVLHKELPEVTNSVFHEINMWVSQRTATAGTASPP
Nature of the experiment: competitive ABPP in human brain lysate at […] ([…] decrease of MAGL signal). It counts as cell-based.

Turning to `O=C(Oc1ccc([N+](=O)[O-])cc1)N1CCC(C(O)(c2ccc3c(c2)OCO3)c2ccc3c(c2)OCO3)CC1` [JZL 184], the inhibition at 10 µM in experiment [1] was 78%; in experiment [2] it was 83%.

What is called inhibition is the drop in the measured response relative to a control, in per cent. A lower inhibition goes with a response near the control.
